Data on ten compounds can be found in patent US20250236614A1, “BICYCLIC TETRAHYDROAZEPINE DERIVATIVES” (Hoffmann-La Roche Inc., priority 2022, published 2025).

In the experiment the test system is MV-3 RFP cells. The experiment is described as follows: T-cell TCB MV3 killing assay. The format is cell-based, human. The following applies: isomer A; for Emax: Homo sapiens, MV-3, 120 h, read-out: MSCP TCB killing MV-3 cells 5 d Emax (%); for EC50: primary human T-cells + MCSP-TCB on MV-3 RFP cells, imaging over 120 hours, read-out: MSCP TCB killing MV-3 cells 5 d EC50. Here is the method:
All culturing steps are executed at 5% CO2, 37° C. and 95% humidity.
MV-3 RFP cells are cultured in MV-3 medium (DMEM+10% FBS, 1× PenStrep and 0.5 μg/mL Puromycin) for at least 3 weeks. Cultured MV-3 cells at 80% confluency are washed once with PBS−− and trypsinized until detached. Cells are then counted and resuspended to 1*10^5 cells/mL in T-cell medium (RPMI 1640+5% human serum+1 mM Sodium Pyruvate+50 μM 2-mercaptoethanol and 1× Pen-Strep). Cells are seeded with 100 μL/well into a 96-well plate (TTP, #92696), and placed for 40 minutes without moving at room temperature in order to achieve evenly distributed attachment of cells. Plates are then incubated until further use.
On the next day, expanded primary human T-cells are thawed and resuspended in T-cell medium to 4*10^6 cells/mL. For 3 hours, they are cultured in a 6-well plate with 6 mL per well at maximum. After culturing the T-cells, they are filtered through a cell strainer (Miltenyi Biotech, #130-041-407), counted again, and cell concentration is adjusted to 2*10^6 cells/mL.
MCSP-TCB or PBS are pre-diluted in T-cell medium (concentration depending on T-cell donor), 4 times more concentrated than the end-concentration. 60 μL/well of pre-dilutions are then distributed into a round bottom plate (Costar, #3799) according to plate layout. Compounds are added in a 9 pt dose response with the Tecan D300e Digital Dispenser, as well 4 times more concentrated than the end-concentration. DMSO concentration of all wells is adjusted to 0.8%, resulting in 0.2% as final concentration.
60 μL per well of T-cell suspension are added to the prepared round bottom plate and resuspended with a manual multichannel. 100 μL/well of the resuspended T-cell suspension including treatments are then transferred cautiously to the over-night cultured MV-3 cells according to plate layout. 100 μL T-cell medium only is added to the outer MV-3 wells only. Final compound DR is starting at 20 μM with a dilution factor of 3.333. Final TCB concentration is between […] and was determined for each T-cell donor individually by running TCB titrations. For each donor, a TCB concentration was chosen which corresponds to 10-20% of MV3 baseline cell killing in the absence of compound treatment. Positive control is the reference compound A1 which is added in a DR, as well as additional wells with only 20 μM. 20 μM of reference compound A1 represent the positive stimulator control, TCB only (DMSO wells) the neutral control.
After transfer of T-cells with treatment pre-dilutions, MV-3 cells are imaged by time-lapse microscopy using IncucyteZOOM™ (Essen BioScience, MI, USA). Imaging is performed every 3 hours for a total of 120 hours (10× objective, phase and red image channels, acquisition time 400 ms, Green/Red 4614 optical module). RFP object count per well is analysed in the IncucyteZOOM™ Software (Version 2019B Rev2) with a mask that was previously created and optimized for MV-3 cells. Raw data is exported as object count/well and values are normalized as % TCL compared to wells with MV-3 only, representing 100% growth and therefore 0% TCL.
Calculated 00 TCL values are analysed in Genedata Screener using Roche Normalization PCT_POS_CTRL with MCSP-TCB only set as Neutral Control and 20 μM of the reference compound A1 set as Stimulator Control/100%.
Induced TCL by compounds without TCB treatment or toxicity (observed in the PBS condition) were be flagged.

Where [1] appears, read: 20 μM reference compound A1 = 100%, MCSP-TCB only neutral control.

For `CC(C)(C#N)c1nnc(-c2cc3c(cc2F)C(F)(F)C[C@@H](N)C(=O)N3Cc2ccc(-c3ccc(C(F)(F)F)cn3)cc2)o1` (single isomer, unassigned) [Example 12], the maximum response (Emax) – broadly, the greatest response seen or fitted, relative to the assay's reference – under setting [1] was 103%.
Regarding `N[C@@H]1CC(F)(F)c2cc(F)c(-c3nnc(N4CCOC5(CC5)C4)o3)cc2N(Cc2ccc(-c3noc(C(F)(F)F)n3)cc2)C1=O` (single isomer, unassigned) [Example 17], the maximal response (Emax) under setting [1] came to 105%.
The same measure, in the same setting: in the case of `COc1ccc(-c2ccc(CN3C(=O)[C@H](N)CC(F)(F)c4cc(F)c(-c5nnc(C(C)(C)C#N)o5)cc43)cc2)cc1` (single isomer, unassigned) [Example 9] it was 92%.
Turning to `COC(F)(c1nnc(-c2cc3c(cc2F)C(F)(F)C[C@H](N)C(=O)N3Cc2ccc(OC(F)(F)F)cc2)o1)C(F)(F)F` (single isomer, unassigned) [Example 4], the concentration giving a half-maximal response (EC50) – broadly, the concentration giving half of the maximal effect – was determined as 69 nM. Under setting [1], the Emax was determined as 94%.
On to “2-methyl-2-[5-[(3S)-3-amino-5,5,7-trifluoro-2-oxo-1-[[4-(trifluoromethoxy)phenyl]methyl]-3,4-dihydro-1-benzazepin-8-yl]-1,3,4-oxadiazol-2-yl]propanenitrile and 2-methyl-2-[5-[(3R)-3-amino-5,5,7-trifluoro-2-oxo-1-[[4-(trifluoromethoxy)phenyl]methyl]-3,4-dihydro-1-benzazepin-8-yl]-1,3,4-oxadiazol-2-yl]propanenitrile [Example 2]”, for which the 50% effective concentration (EC50) was 43 nM. The “MSCP TCB killing MV-3 cells 5 d Emax (%)” value under setting [1] amounted to 93%.
With `CC(C)(c1nnc(-c2cc3c(cc2F)C(F)(F)C[C@@H](N)C(=O)N3Cc2ccc(-c3ccc(C(F)(F)F)cn3)cc2)o1)S(C)(=O)=O` (single isomer, unassigned) [Example 8], under setting [1], the Emax worked out at 100%.
`CC(C)(c1nnc(-c2cc3c(cc2F)C(F)(F)CC(N)C(=O)N3Cc2ccc(Oc3ccccc3)cc2)o1)S(C)(=O)=O` (racemic) [Example 5, (3S)-3-amino-5,5,7-trifluoro-8-[5-(1-methyl-1-methylsulfonyl-ethyl)-1,3,4-oxadiazol-2-yl]-1-[(4-phenoxyphenyl)methyl]-3,4-dihydro-1-benzazepin-2-one and (3R)-3-amino-5,5,7-trifluoro-8-[5-(1-methyl-1-methylsulfonyl-ethyl)-1,3,4-oxadiazol-2-yl]-1-[(4-phenoxyphenyl)methyl]-3,4-dihydro-1-benzazepin-2-one]: the EC50 stood at 372 nM. The Emax under setting [1] is 130%.
As to `N[C@@H]1CC(F)(F)c2cc(F)c(-c3nnc(N4CCCC4)o3)cc2N(Cc2ccc(-c3noc(C(F)(F)F)n3)cc2)C1=O` (single isomer, unassigned) [Example 14], the Emax under setting [1] is 113%.
Consider `CC(C)(c1nnc(-c2cc3c(cc2F)C(F)(F)C[C@@H](N)C(=O)N3Cc2ccc(-c3noc(C(F)(F)F)n3)cc2)o1)S(C)(=O)=O` (single isomer, unassigned) [Example 16], for which the maximal response (Emax) under setting [1] is 84%.
With `CC(C)(C#N)c1nnc(-c2cc3c(cc2F)C(F)(F)C[C@@H](N)C(=O)N3Cc2ccc(-c3ccc(OC(F)F)cn3)cc2)o1` (single isomer, unassigned) [Example 41], the Emax under setting [1] stood at 98%.
